# Laboratory results reported in patent US20060122264A1, “Stem cell invasion inhibitor” (Yasumi Uchida, etal, priority 2003, published 2006).
# Entries after “also recorded” stand apart in the source; their conditions may differ. Marks after values point to notes of the source that are not given here.
# Columns and labels:
# [1] = system: dendritic cells in the coronary artery wall; assay: Prevention of cell invasion associated with coronary angioplasty, local administration: dendritic cell count (CD40 immunostaining); format: in vivo, beagle dogs; details: for Number of dendritic cells (250 × 250 μm^2): 5% drug 0.5 mL injected locally after balloon dilation
# Description: (§1) Nembutal-anesthetized beagle dogs were employed for the test. Each of the animals was endotracheally intubated, and ventilated with air. Subsequently, an 8-French sheath was inserted into the right common carotid artery. An 8-French guide catheter was inserted through the sheath, followed by coronary angiography. Subsequently, a clinically employed balloon catheter for coronary angioplasty (outer diameter: 3 mm, length: 20 mm) was inserted, and then the balloon was expanded at 9 atm, to thereby dilate a distal to intermediate portion of the anterior descending branch of the coronary artery. Through this procedure, the blood vessel wall was damaged. Subsequently, the aforementioned perforated balloon catheter equipped with an injection syringe containing 5% phenolsulfonphthalein (0.5 mL) or 5% bromosulfophthalein (0.5 mL) was guided by a guide wire and inserted into the above-dilated portion, and the phthalein compound (drug) was injected into the blood vessel wall at 3 atm. After completion of injection of the drug, the catheter was removed, and then the cervical portion through which the catheter had been inserted was sutured, followed by administration of an antibiotic. After recovery from anesthesia, the animal was cared for one week to one month, and was again subjected to coronary angiography. One week to one month later, the animal was anesthetized to stop cardiac beat and, the heart was removed from the animal, and then subjected to formalin fixation, followed by preparation of a microscopic sample of the above-dilated portion. Subsequently, the thus-prepared sample was subjected to azan staining and various immunostainings.
# (§2) In connection with this finding, in the above-immunostained sample, stem cells per unit area (250×250 um^2) were counted at the highest-cell-density site of the intima, media, or adventitia. Comparison (in terms of the number of stem cells) was performed between drug administration groups and a non-administration group (control group) in which merely saline (0.5 mL) was injected into a portion of the coronary artery dilated with a balloon, and P<0.05 (by Student t test) was regarded as a significant difference.
# Dendritic cells, which are inflammatory cells, were subjected to immunostaining with a CD40 antibody.
# [2] = system: β-actin-positive vascular stem cells in coronary artery; assay: Insertion of drug-eluting stent into coronary artery: stem cell density; format: in vivo, beagle dogs; details: two-layer-coated drug-eluting stent (inner PLGA 7510, outer PLA 0010), one month
# Description: (§3) Nembutal-anesthetized beagle dogs were employed for the test. While each of the animals was ventilated with air, an 8-French guide catheter was inserted through the right common carotid artery, followed by left coronary angiography. Subsequently, a drug-eluting stent (inner layer: PLGA 7510 containing 50% phenolsulfonphthalein, outer layer: PLA 0010 containing 50% phenolsulfonphthalein) was inserted into the left circumflex branch, and then expanded at 9 atm, followed by placement of the stent. After recovery from anesthesia, the animal was bred for one month, and then was again subjected to coronary angiography. The degree of stenosis was measured at the most stenotic site of the stent-inserted portion, and the thus-measured stenosis degree was compared with that in the case of a non-eluting stent group (i.e., a group in which a stent that is not coated with a drug was inserted). Subsequently, the heart was extirpated from the animal, and then subjected to formalin fixation. Thereafter, a microscopic sample of the stent-inserted portion was prepared, followed by staining of vascular smooth muscle β-actin. Stem cells per unit area were counted at the highest-cell-density site of the intima, media, or adventitia of the above-stained sample. Comparison (in terms of stem cell density) was performed between the drug-eluting stent group and the non-eluting stent group (i.e., the group in which a stent that is not coated with a drug was inserted).
# coronary artery stenosis [3] = assay: Coronary artery stenosis after balloon angioplasty, local administration (coronary angiography, azan staining); format: in vivo, beagle dogs
# Description: as §1
# [4] = system: Human umbilical vein endothelial cells (HUBEC); assay: Proliferation of human vascular endothelial cells; format: cell-based; details: for number of cells after culturing for three days: Endothelial cells
# Procedure: (§4) Human umbilical vein endothelial cells (HUBEC) (1×10^5/cm^2) were inoculated into a medium containing MCDB-104, 10% FBS, ECGF (100 ng/mL), EGF (10 ng/mL), and heparin (100 ng/mL), and phenolsulfonphthalein or bromosulfophthalein was added to the medium, followed by culturing for three days. Thereafter, the resultant cells were counted, and the number of the cells was compared with that in the case where no drug was added to the medium. In a manner similar to that described above, human coronary artery smooth muscle cells (1×10^5/cm^2) were cultured in a medium containing MCDB-104, 10% FBS, and EGF (10 ng/mL) for three days, and the resultant cells were counted.
# [5] = system: thrombus in the right common carotid artery; assay: Arterial thrombosis, carotid intima damaged by Dotter balloon catheter; format: in vivo, dogs; details: 10 mg/kg intravenously
# Procedure: Anesthetized dogs were employed for the test. Phenolsulfonphthalein or bromosulfophthalein (10 mg/kg, which is 100 times the amount clinically used for renal function testing) was intravenously administered to each of the animals, and the intima of the right common carotid artery was damaged by means of a Dotter balloon catheter. Thirty minutes later, the common carotid artery was extirpated, and the wet weight of thrombus present in the carotid artery was measured. The thus-measured wet weight was compared with that in the case of the control group.
# [6] = system: human coronary artery smooth muscle cells; assay: Proliferation of human coronary artery smooth muscle cells; format: cell-based; details: for number of cells after culturing for three days: Smooth muscle cells
# Procedure: as §4
# coronary artery stenosis [7] = assay: Insertion of drug-eluting stent into coronary artery: degree of stenosis; format: in vivo, beagle dogs; details: one month, most stenotic site of stent-inserted portion
# Description: as §3, with “Comparison (in terms of stem cell density) was performed between the drug-eluting stent group and the non-eluting stent group (i.e., the group in which a stent that is not coated with a drug was inserted).” left out
# [8] = system: β-actin-positive stem cells in the coronary artery wall; assay: Prevention of stem cell invasion associated with coronary angioplasty, local administration by pored balloon catheter: stem cell count; format: in vivo, beagle dogs
# Description: as §1, §2
compound,measurement,setting,value
"O=C1OC(c2ccc(O)c(S(=O)(=O)O)c2)(c2ccc(O)c(S(=O)(=O)O)c2)c2c(Br)c(Br)c(Br)c(Br)c21 [Bromosulfophthalein, bromosulfophthalein]",Number of dendritic cells (250 × 250 μm^2),[1]; Adventitia,3.6 ± 0.9* 250 × 250 μm^2
same,invasion of dendritic cells,[1]; CD40 antibody immunostaining,inhibited
same,Number of dendritic cells (250 × 250 μm^2),[1]; Intima,1.6 ± 0.4* 250 × 250 μm^2
same,Number of dendritic cells (250 × 250 μm^2),[1]; Media,1.1 ± 0.1 250 × 250 μm^2
same,Number of stem cells (250 × 250 μm^2),[2]; Adventitia,20.3 ± 9.9* 250 × 250 μm^2
same,Number of stem cells (250 × 250 μm^2),[2]; Intima,8.8 ± 2.6** 250 × 250 μm^2
same,Number of stem cells (250 × 250 μm^2),[2]; Media,8.6 ± 5.0* 250 × 250 μm^2
same,stenosis as determined through coronary angiography,coronary artery stenosis [3]; compared with non-administration group,significantly inhibited
same,Stenosis degree (%),"coronary artery stenosis [3]; coronary angiography, 5% drug 0.5 mL injected locally after balloon dilation",33.5 ± 10.4 %
same,effect of inhibiting proliferation of human vascular endothelial cells (HUBEC),[4],no effect
same,number of cells after culturing for three days,[4]; Concentration (mol) 10^−4,3.44
same,number of cells after culturing for three days,[4]; Concentration (mol) 10^−5,3.43
same,number of cells after culturing for three days,[4]; Concentration (mol) 10^−6,3.52
same,number of cells after culturing for three days,[4]; Concentration (mol) 10^−7,3.59
same,number of cells after culturing for three days,[4]; Concentration (mol) 10^−8,3.34
same,effect of inhibiting thrombus formation (antithrombotic effect),[5],no effect; also recorded: nor antithrombotic effect
same,Average thrombus weight,[5]; wet weight thirty minutes after intima damage,210 mg
same,effect of inhibiting proliferation of vascular smooth muscle cells,[6],no effect
same,number of cells after culturing for three days,[6]; Concentration (mol) 10^−4,3.43
same,number of cells after culturing for three days,[6]; Concentration (mol) 10^−5,3.78
same,number of cells after culturing for three days,[6]; Concentration (mol) 10^−6,4.19
same,number of cells after culturing for three days,[6]; Concentration (mol) 10^−7,4.14
same,number of cells after culturing for three days,[6]; Concentration (mol) 10^−8,4.24
same,Stenosis degree (%),coronary artery stenosis [7],11.2 ± 3.1 %
same,Number of stem cells,"[8]; Adventitia, 5% drug 0.5 mL injected locally after balloon dilation",22.0 ± 6.2* 250×250 um^2
same,Number of stem cells,"[8]; Intima, 5% drug 0.5 mL injected locally into vessel wall after balloon dilation, per unit area at highest-cell-density site",14.8 ± 6.1* 250×250 um^2
same,Number of stem cells,"[8]; Media, 5% drug 0.5 mL injected locally after balloon dilation",16.1 ± 4.8 250×250 um^2
same,stem cell density compared with the non-administration group,[8]; at all the membranes,significantly lower
